Assay results from article PMC3349126, “Evaluation of the Cytotoxicity of Satureja spicigera and Its Main Compounds” (The Scientific World Journal, 2012).
≈ marks a conversion by molar mass, not a printed value. Counter-ions that a name gives are not always drawn.

Key:
[1] = test system: HT-29 (colon adenocarcinoma); assay: MTT cytotoxicity assay, HT-29; format: cell-based; settings: Homo sapiens, 48 hours
Description: (§1) Four cancerous cell lines HT29/219 (human, colon, epithelial-like, carcinoma), Caco2 (human, colon, adenocarcinoma), NIH-3T3 (Swiss NIH mouse, embryo fibroblast), and T47D (human, breast, ductal carcinoma) were purchased from the Pasteur Institute, Tehran, Iran. The cells were maintained in RPMI 1640, supplemented with 10% fetal bovine serum, 0.28 units/mL insulin, 100 μg/mL streptomycin, 100 units/mL penicillin, and 0.3 mg/mL glutamine. The cells were grown at 37°C in a humidified atmosphere of 5% CO2, in air.
(§2) The cytotoxicity of the compounds isolated from S. spicigera was assayed using the MTT cytotoxicity assay. The cells (3 × 10^ 4) were plated in 500 μL of medium/well in 48-well plates (NUNC Cell Culture Flasks, Denmark). After an overnight incubation at 37°C, in 5% CO2, and a humidified atmosphere, the samples were added to the cells to a final concentration of 500 μg/mL. “Methotrexate” (positive control) and pure compounds were examined at concentrations ranging from 5, 10, 20, 40, 80, and 100 μg/mL. The plates were incubated at 37°C, in 5% CO2, humidified atmosphere, for 48 hours. After 48 hours, 50 μL of 5 mg/mL MTT (dissolved in PBS) was added per well. After three hours of incubation, the MTT solution was removed and the cells were washed with 100 μL of PBS, twice. One hundred and fifty microlitres of DMSO was added per well, to solubilize the formazan crystals. The optical densities of the wells were then measured at 570 nm (690 nm reference wavelength). By referring to the control (medium with DMSO), the cell survival was assessed.

[2] = Brine shrimp lethality assay (BSA); settings: Artemia salina (brine shrimp) nauplii, in vivo, probit analysis, read-out: LC50 against Artemia salina larvae
Description: Gohari et al. reported the method which was adopted to study the cytotoxic activity of the compounds [11]. Water life brand brine shrimp (Artemia salina) eggs were purchased from the Shalat Center (Tehran). The eggs were hatched in a flask containing 300 mL artificial seawater made […]. The flask was well aerated with the aid of an air pump and kept in a water bath at 29-30°C. A bright light was left on. The nauplii hatched within 48 h. The extracts and pure compounds were dissolved in normal saline. Different concentrations were obtained by serial dilution. Solution of each concentration (500 μL) was transferred into clean 24-well plates via a pipette, and aerated seawater having 10–20 nauplii (500 μL) was added. A check count was performed and the number alive noted after 24 h. The mortality end point of the bioassay was determined as the absence of controlled forward motion during 30 seconds of observation. […] Lethality percentage was determined and LC50 calculated based on probit analysis with 95% of confidence interval [11].

[3] = test system: T47D (human, breast, ductal carcinoma); assay: MTT cytotoxicity assay, T47D; format: cell-based; settings: 48 hours
Description: as §1, §2

[4] = test system: HT29/219, Caco2, NIH-3T3, and T47D; assay: MTT cytotoxicity assay, all four cell lines (statement in words); format: cell-based; settings: 48 hours
Description: as §1
The cytotoxicity of the compounds isolated from S. spicigera was assayed using the MTT cytotoxicity assay. The cells (3 × 10^ 4) were plated in 500 μL of medium/well in 48-well plates (NUNC Cell Culture Flasks, Denmark). After an overnight incubation at 37°C, in 5% CO2, and a humidified atmosphere, the samples were added to the cells to a final concentration of 500 μg/mL. “Methotrexate” (positive control) and pure compounds were examined at concentrations ranging from 5, 10, 20, 40, 80, and 100 μg/mL. The plates were incubated at 37°C, in 5% CO2, humidified atmosphere, for 48 hours. After 48 hours, 50 μL of 5 mg/mL MTT (dissolved in PBS) was added per well. […] The optical densities of the wells were then measured at 570 nm (690 nm reference wavelength). By referring to the control (medium with DMSO), the cell survival was assessed.

[5] = test system: Caco-2 (colon adenocarcinoma); assay: MTT cytotoxicity assay, Caco-2; format: cell-based; settings: Homo sapiens, 48 hours
Description: as §1, §2

[6] = test system: NIH 3T3 (Swiss embryo fibroblast); assay: MTT cytotoxicity assay, NIH 3T3; format: cell-based; settings: Mus musculus, NIH3T3, 48 hours
Description: as §1, §2

Structure (SMILES): O=C1CC(c2cc(O)cc(O)c2)Oc2cc(O)cc(O)c21 (stereo not shown) [compound 8, 5,7,3′,5′-Tetrahydroxy Flavanone]
- IC50 [1]: > 150 µg/mL
- LC50 at 24 h [2]: 2 µg/mL (≈ 6.94 µM)
- IC50 [3]: > 150 µg/mL
- inhibition of the cell growth or proliferation (in words) [4]: did not show significant inhibition
- IC50 [5]: > 150 µg/mL
- IC50 [6]: 101 µg/mL (≈ 349 µM)

Structure (SMILES): COc1ccc2cc3[n+](cc2c1OC)CCc1cc2c(cc1-3)OCO2 [berberine hydrochloride, reference compound]
- LC50 at 24 h [2]: 26 µg/mL

Structure (SMILES): COc1cc(C2CC(=O)c3c(O)cc(OC4OC(COC5OC(C)C(O)C(O)C5O)C(O)C(O)C4O)cc3O2)ccc1O [compound 9, 5,4′-Dihydroxy-3′-methoxyflavanone-7-(6′′-O-α-L-rhamnopyranosyl)-β-D-glucopyranoside]
- IC50 [1]: > 150 µg/mL
- IC50 [3]: 98.7 µg/mL (≈ 162 µM)
- IC50 [5]: > 150 µg/mL
- melting point: 256 °C
- IC50 [6]: 140 µg/mL (≈ 230 µM)

Structure (SMILES): O=C(c1c(O)cc(O)cc1O)C(O)Cc1ccc(O)cc1 (stereo not shown) [compound 7, nubigenol]
- IC50 [1]: > 150 µg/mL
- IC50 [3]: 132 µg/mL (≈ 455 µM)
- IC50 [5]: 143 µg/mL (≈ 493 µM)
- IC50 [6]: 112 µg/mL (≈ 386 µM)
